We go through 34 compounds from US7410975B2, “Small molecule toll-like receptor (TLR) antagonists” (Coley Pharmaceutical Group, Inc., priority 2003, dated 2008).

Counter-ions that a name gives are not always drawn.

The first assay deals with T1, human TLR7 (hTLR7) (Homo sapiens, UniProt Q9NYK1).
T1 construct: expressed in transfected cells
T1 sequence (Q9NYK1 27-1049): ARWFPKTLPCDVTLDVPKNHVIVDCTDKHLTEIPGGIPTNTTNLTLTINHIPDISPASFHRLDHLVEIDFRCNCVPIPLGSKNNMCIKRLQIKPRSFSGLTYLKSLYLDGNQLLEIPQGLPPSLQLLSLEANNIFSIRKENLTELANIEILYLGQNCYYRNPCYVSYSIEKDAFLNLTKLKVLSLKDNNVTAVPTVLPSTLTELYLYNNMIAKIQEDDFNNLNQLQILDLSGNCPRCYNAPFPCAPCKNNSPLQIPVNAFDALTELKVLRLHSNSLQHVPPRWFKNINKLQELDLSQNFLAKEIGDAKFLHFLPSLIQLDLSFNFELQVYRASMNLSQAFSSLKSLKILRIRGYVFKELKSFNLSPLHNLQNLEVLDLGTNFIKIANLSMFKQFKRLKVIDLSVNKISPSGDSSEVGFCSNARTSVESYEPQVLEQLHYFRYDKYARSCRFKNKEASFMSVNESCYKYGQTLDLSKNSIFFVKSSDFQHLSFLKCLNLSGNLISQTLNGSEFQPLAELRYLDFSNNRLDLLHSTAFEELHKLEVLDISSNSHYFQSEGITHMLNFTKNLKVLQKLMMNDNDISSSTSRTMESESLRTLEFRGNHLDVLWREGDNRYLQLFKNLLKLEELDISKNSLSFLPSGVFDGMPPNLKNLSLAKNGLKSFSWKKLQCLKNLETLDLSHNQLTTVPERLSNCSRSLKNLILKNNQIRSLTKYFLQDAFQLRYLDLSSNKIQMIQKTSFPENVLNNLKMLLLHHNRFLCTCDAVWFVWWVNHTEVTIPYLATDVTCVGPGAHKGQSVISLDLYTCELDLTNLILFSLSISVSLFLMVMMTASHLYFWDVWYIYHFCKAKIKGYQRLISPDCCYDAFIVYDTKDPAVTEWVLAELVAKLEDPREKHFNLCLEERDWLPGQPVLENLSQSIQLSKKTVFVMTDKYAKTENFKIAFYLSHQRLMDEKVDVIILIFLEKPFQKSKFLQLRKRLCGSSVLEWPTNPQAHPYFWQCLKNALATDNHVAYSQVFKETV
Kind of assay: Antagonist screen, hTLR7-NFκB-293 cells, NF-κB-luciferase reporter, with EC50 of R848. It counts as cell-based. Conditions: compound at 0.5, 5, 50 μg/ml; EC50 concentration of R848; 16 h; NF-κB-luciferase. (In general: In a reporter assay the amount or activity of a reporter protein is the signal.)
In the case of `CN1CCc2cccc3c2[C@H]1Cc1ccc(O)c(O)c1-3.Cl` [compound 101, Apomorphinehydrochloride (R, —)], the “hTLR7 (inhibitory effect, antagonist score)” value was “— (compounds for which there was no clear down regulation even at 50 μg/ml)”.
For the compound `CC(C)(C)c1ccc(C(O)CCCN2CCC(C(O)(c3ccccc3)c3ccccc3)CC2)cc1` (stereo not shown) [compound 138, Terfenadine], the “hTLR7 (inhibitory effect, antagonist score)” value was 11 (compounds for which there was clear down regulation only at 50 μg/ml).
Take `CN(C)C(=O)C(CCN1CCC(O)(c2ccc(Cl)cc2)CC1)(c1ccccc1)c1ccccc1` [compound 144, Loperamidehydrochloride]: the “hTLR7 (inhibitory effect, antagonist score)” value is recorded as 11 (compounds for which there was clear down regulation only at 50 μg/ml).
Take `COc1cc2c(cc1O)C[C@H]1c3c(cc(O)c(OC)c3-2)CCN1C` [compound 600, Boldine]: the “hTLR7 (inhibitory effect, antagonist score)” value is on record as “— (compounds for which there was no clear down regulation even at 50 μg/ml)”.
For the compound `CN1CCc2cc3c(c4c2C1Cc1ccccc1-4)OCO3.Cl` (stereo not shown) [compound 669, Remerine hydrochloride], the “hTLR7 (inhibitory effect, antagonist score)” value is 11 (compounds for which there was clear down regulation only at 50 μg/ml).
For `COc1cc2nc(N3CCN(C(=O)C4CCCO4)CC3)nc(N)c2cc1OC.Cl` (stereo not shown) [compound 751, Terazosin hydrochloride], the “hTLR7 (inhibitory effect, antagonist score)” value is recorded as “— (compounds for which there was no clear down regulation even at 50 μg/ml)”.
On the same count and under the same terms, the result for `COc1cc2nc(N3CCN(C(=O)C4COc5ccccc5O4)CC3)nc(N)c2cc1OC.CS(=O)(=O)O` (stereo not shown) [compound 858, Doxazosin mesylate] reads “— (compounds for which there was no clear down regulation even at 50 μg/ml)”; that for `CCN(CC)CCCC(C)Nc1nc(/C=C/c2ccc(Cl)cc2)nc2cc3ccccc3cc12` (stereo not shown) [compound 2000], 13 (compounds for which there was clear down regulation at 0.5 μg/ml, 5 μg/ml, and 50 μg/ml).
With `CCN(CC)CCCNc1nc(-c2ccccc2)nc2ccccc12` [compound 2001], the “hTLR7 (inhibitory effect, antagonist score)” value is given as 11 (compounds for which there was clear down regulation only at 50 μg/ml).

Still in this assay, the particulars now being: hTLR7-NFκB-293 cells, with EC50 of R848; compound at 0.5, 5 and 50 μg/ml.
Take `COc1cc2cc3c4cc(OC)c(OC)cc4cc[n+]3c(C)c2cc1OC` [compound 431, Coralyne chloridehydrate]: the “hTLR7 (inhibitory effect)” value is listed as “— (compounds for which there was no clear down regulation even at 50 μg/ml)”.
Same read-out and setting: the same measure for `COc1ccc(Cc2nccc3cc(OC)c(OC)cc23)cc1OC.Cl` [compound 583, Papaverinehydrochloride]: 11 (compounds for which there was clear down regulation only at 50 μg/ml); for `COc1ccc2cc3[n+](cc2c1OC)CCc1cc2c(cc1-3)OCO2.[Cl-]` [compound 586, Berberine chloride]: “— (compounds for which there was no clear down regulation even at 50 μg/ml)”; for `CC[N+](C)(CC)CCC[n+]1c(-c2ccccc2)c2cc(N)ccc2c2ccc(N)cc21.[I-].[I-]` [compound 792, Propidium iodide]: “— (compounds for which there was no clear down regulation even at 50 μg/ml)”.
On the same count and under the same terms, the result for `CN(C)CCN(Cc1ccc(Cl)cc1)c1ccccn1.Cl` [compound 807, Chloro-pyraminehydrochloride] reads “— (compounds for which there was no clear down regulation even at 50 μg/ml)”; that for `CCOc1ccc(Cc2nccc3cc(OCC)c(OCC)cc23)cc1OCC.Cl` [compound 830, Ethaverinehydrochloride], 11 (compounds for which there was clear down regulation only at 50 μg/ml).
`O=c1c2c(nc(NCCO)n1-c1ccccc1)-c1ccccc1CC21CCCC1` [compound 891]: the “hTLR7 (inhibitory effect)” value is 11 (compounds for which there was clear down regulation only at 50 μg/ml).
As to `O=c1c2c(nc(NCCO)n1Cc1ccccc1)-c1ccccc1CC21CCCC1` [compound 926], the “hTLR7 (inhibitory effect)” value is reported as 11 (compounds for which there was clear down regulation only at 50 μg/ml).
Still for that read-out and setting: the result for `CN1CCc2c1nc1ccccc1c2N` [compound 990, 1-Methyl-2,3-dihydro-1H-pyrrolo[2,3-b]quinolin-4-ylamine] reads “— (compounds for which there was no clear down regulation even at 50 μg/ml)”; that for `CN1CCc2c1nc1ccccc1c2NC(=O)CN1CCCCCC1` [compound 1003], 11 (compounds for which there was clear down regulation only at 50 μg/ml).
Same read-out and setting: the same measure for `Cc1ccc2nc3c(c(N)c2c1)CCN3C` [compound 1091, 1,6-Dimethyl-2,3-dihydro-1H-pyrrolo[2,3-b]quinolin-4-ylamine]: 11 (compounds for which there was clear down regulation only at 50 μg/ml); for `Cc1ccc(-n2c(NCCO)nc3c(c2=O)C2(CCCCC2)Cc2ccccc2-3)cc1` [compound 1137]: 12 (compounds for which there was clear down regulation at 5 μg/ml and 50 μg/ml).
With `CN1CCc2c1nc1ccc(Br)cc1c2N` [compound 1142, 6-Bromo-1-methyl-2,3-dihydro-1H-pyrrolo[2,3-b]quinolin-4-ylamine], the “hTLR7 (inhibitory effect)” value was 11 (compounds for which there was clear down regulation only at 50 μg/ml).
Consider `O=C1c2ccc(S(=O)(=O)c3ccc4c(c3)C(=O)N(c3ccccn3)C4=O)cc2C(=O)N1c1ccccn1` [compound 1163], for which the “hTLR7 (inhibitory effect)” value is recorded as 11 (compounds for which there was clear down regulation only at 50 μg/ml).
`CN1CCCCc2c1nc1ccccc1c2N` [compound 1185, 1-Methyl-2,3,4,5-tetrahydro-1H-azepino[2,3-b]quinolin-6-ylamine]: the “hTLR7 (inhibitory effect)” value is recorded as “— (compounds for which there was no clear down regulation even at 50 μg/ml)”.
Take `CN1CCc2c1nc1ccccc1c2NC(=O)CN1CCN(c2ccccc2)CC1` [compound 1212]: the “hTLR7 (inhibitory effect)” value was 11 (compounds for which there was clear down regulation only at 50 μg/ml).
As for `Cn1c(NN)nc2c(c1=O)C1(CCCC1)Cc1ccccc1-2` [compound 1213], the “hTLR7 (inhibitory effect)” value is 11 (compounds for which there was clear down regulation only at 50 μg/ml).
On the same count and under the same terms, the result for `Nc1c2c(nc3ccccc13)N(Cc1ccccc1)CC2` [compound 1217, 1-Benzyl-2,3-dihydro-1H-pyrrolo[2,3-b]quinolin-4-ylamine] reads 13 (compounds for which there was clear down regulation at 0.5 μg/ml, 5 μg/ml, and 50 μg/ml); that for `CCCCCCN(CCCCCC)CC(=O)Nc1c2c(nc3ccccc13)N(C)CC2` [compound 1224], 12 (compounds for which there was clear down regulation at 5 μg/ml and 50 μg/ml).
On the same count and under the same terms, the same measure for `O=C(CN1CCCC1)Nc1c2c(nc3ccccc13)N(c1ccccc1)CC2` [compound 1244]: 11 (compounds for which there was clear down regulation only at 50 μg/ml); for `NNc1nc2c(c(=O)n1C1CCCC1)C1(CCCC1)Cc1ccccc1-2` [compound 1248]: 11 (compounds for which there was clear down regulation only at 50 μg/ml).
Consider `NNc1nc2c(c(=O)n1-c1ccccc1)C1(CCCC1)Cc1ccccc1-2` [compound 1320], for which the “hTLR7 (inhibitory effect)” value was “— (compounds for which there was no clear down regulation even at 50 μg/ml)”.
`O=c1[nH]c(NCCO)nc2c1C1(CCCC1)Cc1ccccc1-2` [compound 1322]: the “hTLR7 (inhibitory effect)” value is 11 (compounds for which there was clear down regulation only at 50 μg/ml).
As for `CCCCCCCCCCCC(=O)Nc1c2c(nc3ccccc13)N(C)CC2` [compound 1334], the “hTLR7 (inhibitory effect)” value is “— (compounds for which there was no clear down regulation even at 50 μg/ml)”.
Regarding `O=C1c2ccc(Oc3ccc(S(=O)(=O)c4ccc(Oc5ccc6c(c5)C(=O)N(c5ccccn5)C6=O)cc4)cc3)cc2C(=O)N1c1ccccn1` [compound 1367], the “hTLR7 (inhibitory effect)” value is reported as 11 (compounds for which there was clear down regulation only at 50 μg/ml).
